From a flash point compilation (Sun et al. 2020)

Work on `CCCCCCCCCCCCCC` [Tetradecane] yielded a flash point of 109.2 °C.

Remark: another data set of the same source
For `CC(C)(C)C(C)(C)C` [2,2,3,3-Tetramethylbutane], the flash point was -0 °C.
In the case of `CC(C)C(C)C(C)(C)C` (stereo not drawn) [2,2,3,4-Tetramethylpentane], the flash point is reported as 11 °C.
`CC(C)C(C)(C)C` [2,2,3-Trimethylbutane] gave a flash point of -26 °C.
For `CCCC(C)C(C)(C)C` (stereo not drawn) [2,2,3-Trimethylhexane], the flash point was 15 °C.
With `CC(C)(C)CC(C)(C)C` [2,2,4,4-Tetramethylpentane] the flash point was 3 °C.
For `CC(C)(C)CCC(C)(C)C` [2,2,5,5-Tetramethylhexane], the flash point was 31 °C.
`CC(C)CCC(C)(C)C` [2,2,5-Trimethylhexane] showed a flash point of 13 °C.
Work on `CCC(C)C(C)(C)C(C)C` (stereo not drawn) [2,3,3,4-Tetramethylhexane] yielded a flash point of 31 °C.
In the case of `CCC(C)(C)C(C)C` [2,3,3-Trimethylpentane], the flash point is reported as -0 °C.
With `CCC(C)C(C)C(C)C` (stereo not drawn) [2,3,4-Trimethylhexane] the flash point was 15 °C.
`CCC(C)CC(C)C(C)C` (stereo not drawn) [2,3,5-Trimethylheptane] gave a flash point of 31 °C.
With `CC(C)CC(C)C(C)C` (stereo not drawn) [2,3,5-Trimethylhexane] the flash point was 15 °C.
Work on `CCC(C)(CC)C(C)C` [2,3-Dimethyl-3-ethylpentane] yielded a flash point of 15 °C.
Work on `CCCC(C)C(C)C` (stereo not drawn) [2,3-Dimethylhexane] yielded a flash point of 10 °C.
Compound `CCC(C)C(C)C` (stereo not drawn) [2,3-Dimethylpentane] has a flash point of -15 °C.
`CCC(C)C(C)CC(C)C` (stereo not drawn) [2,4,5-Trimethylheptane] gave a flash point of 31 °C.
With `CCC(C)CCCC(C)C` (stereo not drawn) [2,6-Dimethyloctane] the flash point was 41 °C.
Work on `CC(C)C` [2-Methylpropane] yielded a flash point of -87 °C.
Work on `CCC(C)C(C)(C)CC` (stereo not drawn) [3,3,4-Trimethylhexane] yielded a flash point of 15 °C.
Compound `CCC(C)(C)CC` [3,3-Dimethylpentane] has a flash point of -19 °C.
Compound `CCC(C)C(C)C(C)CC` (stereo not drawn) [3,4,5-Trimethylheptane] has a flash point of 31 °C.
`CCCC(C)C(C)CC` (stereo not drawn) [3,4-Dimethylheptane] showed a flash point of 15 °C.
In the case of `CCCC(CC)C(C)(C)C` (stereo not drawn) [3-Ethyl-2,2-dimethylhexane], the flash point is reported as 38 °C.
For `CCC(C)(C(C)C)C(C)C` [3-Ethyl-2,3,4-trimethylpentane], the flash point was 31 °C.
`CCC(CC)CC` [3-Ethylpentane] gave a flash point of -18 °C.
With `CCCC(CC)C(C)CC` (stereo not drawn) [4-Ethyl-3-methylheptane] the flash point was 41 °C.
In the case of `CCCCC(CC)CCC` (stereo not drawn) [4-Ethyloctane], the flash point is reported as 41 °C.
Compound `CCCCCCCCCCCCCC` [Tetradecane] has a flash point of 99 °C.

Remark: another data set of the same source
Compound `CC(C)(C)CCCl` [1-Chloro-3,3-dimethylbutane] has a flash point of 19.1 °C.
In the case of `CC(C)CCCl` [1-Chloro-3-methylbutane], the flash point is reported as 16.1 °C.
Compound `CCC(C)CCCCCl` (stereo not drawn) [1-Chloro-5-methylheptane] has a flash point of 52.6 °C.
`CCCCCCCCCCCl` [1-Chlorodecane] gave a flash point of 83.1 °C.
`CCCCCCCCCCCCCl` [1-Chlorododecane] gave a flash point of 104.6 °C.
With `CCCCCCCCCCCCCCCCCCl` [1-Chloroheptadecane] the flash point was 145.2 °C.
For `CCCCCCCCCCCCCCCCCCCl` [1-Chlorooctadecane], the flash point was 184.1 °C.
With `CCCCCCCCCCCCCCCl` [1-Chlorotetradecane] the flash point was 130.1 °C.
Compound `CC(C)(C)C(C)(C)Cl` [2-Chloro-2,3,3-trimethylbutane] has a flash point of 24.4 °C.
With `CC(C)C(C)(C)Cl` [2-Chloro-2,3-dimethylbutane] the flash point was 15.0 °C.
For `CC(C)CC(C)(C)Cl` [2-Chloro-2,4-dimethylpentane], the flash point was 29.8 °C.
For `CC(C)CC(C)Cl` (stereo not drawn) [2-Chloro-4-methylpentane], the flash point was 21 °C.
Work on `CC(C)CCC(C)Cl` (stereo not drawn) [2-Chloro-5-methylhexane] yielded a flash point of 35.2 °C.
`CCCCCCCCCCC(C)Cl` (stereo not drawn) [2-Chlorododecane] gave a flash point of 99.6 °C.
`CCCCCC(C)Cl` (stereo not drawn) [2-Chloroheptane] gave a flash point of 39.2 °C.
For `CCC(Cl)C(C)C` (stereo not drawn) [3-Chloro-2-methylpentane], the flash point was 21 °C.
`CCCCC(Cl)(CC)CC` [3-Chloro-3-ethylheptane] gave a flash point of 60.0 °C.
Compound `CCCC(C)(Cl)CC` (stereo not drawn) [3-Chloro-3-methylhexane] has a flash point of 33.6 °C.
In the case of `CCCCCC(C)(Cl)CC` (stereo not drawn) [3-Chloro-3-methyloctane], the flash point is reported as 60.0 °C.
`CCCCCC(Cl)CC` (stereo not drawn) [3-Chlorooctane] gave a flash point of 52.6 °C.
`CCC(Cl)CC` [3-Chloropentane] gave a flash point of 10 °C.
Compound `CCCC(Cl)CCC` [4-Chloroheptane] has a flash point of 39.2 °C.
`CCCCCCCC(Cl)CCCC` (stereo not drawn) [5-Chlorododecane] showed a flash point of 99.5 °C.
For `CCC(C)(Cl)CCCC(C)C` (stereo not drawn) [6-Chloro-2,6-dimethyloctane], the flash point was 69 °C.

Remark: another data set of the same source
`C=CC(=O)OCCC[Si](O[Si](C)(C)C)(O[Si](C)(C)C)O[Si](C)(C)C` [(3-ACRYLOXYPROPYL)TRIS(TRIMETHYLSILOXY)SILANE] showed a flash point of 93.00 °C.
`C[Si](C)(C)CN=[N+]=[N-]` [(AZIDOMETHYL)TRIMETHYLSILANE] showed a flash point of 6.00 °C.
`CC(=O)OCC[Si](C)(C)Cl` [ACETOXYETHYLDIMETHYLCHLOROSILANE] showed a flash point of 63.00 °C.
In the case of `CC(=O)OCC[Si](C)(Cl)Cl` [ACETOXYETHYLMETHYLDICHLOROSILANE], the flash point is reported as 65.00 °C.
For `CCO[Si](CCOC(C)=O)(OCC)OCC` [ACETOXYETHYLTRIETHOXYSILANE], the flash point was 99.00 °C.
Compound `CC(=O)O[Si](C)(C)C` [ACETOXYTRIMETHYLSILANE] has a flash point of 4.00 °C.
In the case of `CC(=O)[Si](C)(C)C` [ACETYLTRIMETHYLSILANE], the flash point is reported as 8.00 °C.
In the case of `C=CC(=O)OC[Si](OC)(OC)OC` [ACRYLOXYMETHYLTRIMETHOXYSILANE], the flash point is reported as 62.00 °C.
`C=CC[Si](Cl)(Cl)CCCCl` [ALLYL(3-CHLOROPROPYL)DICHLOROSILANE] gave a flash point of 76.00 °C.
Compound `C=CC[Si](C)(C)c1ccc(OC)cc1` [ALLYL(4-METHOXYPHENYL)DIMETHYLSILANE] has a flash point of 102.00 °C.
For `C=CC[Si](C)(C)CCl` [ALLYL(CHLOROMETHYL)DIMETHYLSILANE], the flash point was 27.00 °C.
`C=CCN[Si](C)(C)C` [ALLYLAMINOTRIMETHYLSILANE] gave a flash point of 10.00 °C.
Compound `C=CC[SiH](Cl)Cl` [ALLYLDICHLOROSILANE] has a flash point of -4.00 °C.
Work on `C=CCO[Si](C)(C)C(C)(C)C` [ALLYLOXY-t-BUTYLDIMETHYLSILANE] yielded a flash point of 32.00 °C.
For `C=CC[Si](Cl)(Cl)c1ccccc1` [ALLYLPHENYLDICHLOROSILANE], the flash point was 76.00 °C.
`C=CC[Si](Cl)(Cl)Cl` [ALLYLTRICHLOROSILANE] showed a flash point of 31.00 °C.
`C=CC[Si](OCC)(OCC)OCC` [ALLYLTRIETHOXYSILANE] gave a flash point of 47.00 °C.
In the case of `C=CC[Si](C(C)C)(C(C)C)C(C)C` [ALLYLTRIISOPROPYLSILANE], the flash point is reported as 76.00 °C.
With `C=CC[Si](C)(C)C` [ALLYLTRIMETHYLSILANE] the flash point was 7.00 °C.
`C[Si](C)(Cl)Cc1ccccc1` [BENZYLDIMETHYLCHLOROSILANE] showed a flash point of 73.00 °C.
With `CCO[Si](CCCNCCN)(OCC)OCC` [N-(2-AMINOETHYL)-3-AMINOPROPYLTRIETHOXYSILANE] the flash point was 148.00 °C.
In the case of `CO[Si](CCCNCCN)(OC)OC` [N-(2-AMINOETHYL)-3-AMINOPROPYLTRIMETHOXYSILANE], the flash point is reported as 150.00 °C.
With `COCN(Cc1ccccc1)C[Si](C)(C)C` [N-BENZYL-N-METHOXYMETHYL-N-(TRIMETHYLSILYLMETHYL)AMINE] the flash point was 66.00 °C.
`CO[Si](OC)(OC)c1cccc(N)c1` [m-AMINOPHENYLTRIMETHOXYSILANE] gave a flash point of 180.00 °C.

Remark: another data set of the same source
Compound `C=[C](OCC)[Sn]([CH2]CCC)([CH2]CCC)[CH2]CCC` [1-ETHOXYVINYLTRI-n-BUTYLTIN] has a flash point of 113.00 °C.
With `CCC[CH2][Sn]([CH2]CCC)([CH2]CCC)[c]1cccs1` [2-THIENYLTRI-n-BUTYLTIN] the flash point was 106.00 °C.
`C=C[CH2][Sn]([CH2]CCC)([CH2]CCC)[CH2]CCC` [ALLYLTRI-n-BUTYLTIN] showed a flash point of 103.00 °C.

Remark: another data set of the same source
`CC(C)[O-].CC(C)[O-].CCOC(=O)CC(C)=O.[Al+2]` [ALUMINUM DIISOPROPOXIDE ETHYLACETOACETATE] gave a flash point of 50.00 °C.
With `CCCC[O-].CCCC[O-].CCCC[O-].[Sb+3]` [ANTIMONY(III) n-BUTOXIDE] the flash point was 68.00 °C.
Work on `C1CCC(PC2CCCCC2)CC1` [DICYCLOHEXYLPHOSPHINE] yielded a flash point of 110.00 °C.
`[CH3][Al]([CH3])[Cl]` [DIMETHYLALUMINUM CHLORIDE] showed a flash point of -18.00 °C.
Compound `CC(C)[O][Al]([CH3])[CH3]` [DIMETHYLISOPROPOXYALUMINUM] has a flash point of 5.00 °C.
For `CCCCN(CCCC)C(=S)[S-].CCCCN(CCCC)C(=S)[S-].[Ni+2]` [NICKEL DI-n-BUTYLDITHIOCARBAMATE], the flash point was 260.00 °C.
`CCCC[O-].CCCC[O-].CCCC[O-].CCCC[O-].CCCC[O-].[Nb+5]` [NIOBIUM(V) n-BUTOXIDE] gave a flash point of 90.00 °C.
For `CC(C)(C)CCCCCC(=O)[O-].[Ag+]` [SILVER NEODECANOATE], the flash point was 102.00 °C.
For `CCCC[O-].CCCC[O-].CCCC[O-].CCCC[O-].CCCC[O-].[Ta+5]` [TANTALUM(V) n-BUTOXIDE], the flash point was 66.00 °C.
With `CCCCCCCCCCCCCC[P+](CCCCCC)(CCCCCC)CCCCCC.[Cl-]` [TETRADECYL(TRIHEXYL)PHOSPHONIUM CHLORIDE] the flash point was 118.00 °C.
For `CC(C)[O-].CC(C)[O-].CC(C)[O-].[Cl-].[Ti+4]` [TITANIUM CHLORIDE TRIISOPROPOXIDE], the flash point was 22.00 °C.
`CC(C)[O-].CC(C)[O-].CC(C)[O-].CC(C)[O-].[Ti+4]` [TITANIUM ISOPROPOXIDE] gave a flash point of 25.00 °C.
`CC[N-]CC.CC[N-]CC.CC[N-]CC.CC[N-]CC.[Ti+4]` [TITANIUM TETRAKIS(DIETHYLAMIDE)] showed a flash point of 37.00 °C.
`CC[N-]C.CC[N-]C.CC[N-]C.CC[N-]C.[Ti+4]` [TITANIUM TETRAKIS(ETHYLMETHYLAMIDE)] showed a flash point of 10.00 °C.
Compound `CCC[O-].CCC[O-].CCC[O-].CCC[O-].[Ti+4]` [TITANIUM n-PROPOXIDE] has a flash point of 45.00 °C.
Work on `[CH3][Ga]([CH3])[CH3]` [TRIMETHYLGALLIUM] yielded a flash point of -1.00 °C.
With `c1ccc(P(c2ccccc2)c2ccccc2)cc1` [TRIPHENYLPHOSPHINE] the flash point was 182.00 °C.
For `C[N](C)[Ga]([N](C)C)[N](C)C` [TRIS(DIMETHYLAMINO)GALLIUM], the flash point was 56.00 °C.
